Laboratory results reported in patent US20050020643A1, “Pyridinyl amides and compositions thereof for use as fungicides” (priority 2002, published 2005).
Like-named read-outs stand apart in the source and are kept apart here. Marks after values point to notes of the source that are not given here.

Assays:
Assay type in all cases: in vivo
[1] = system: Erysiphe graminis f. sp. tritici; assay: Test A: preventive control of wheat powdery mildew on wheat seedlings; design: concentration or dose not given beside the values; conditions: sprayed day before inoculation, rated after 7 days, rate not given
[2] = system: Phytophthora infestans
[3] = system: Plasmopara viticola; assay: Test E: preventive control of grape downy mildew on grape seedlings
[4] = system: Phytophthora infestans; assay: whole plant or invertebrate; conditions: for Test F disease control rating: 100 g/ha on potato seedlings, sprayed day after inoculation; for pest or weed control at 100 g/ha: Phytophthora infestans, in Solanum tuberosum, 120 h, read-out: Test F disease control rating
[5] = system: Plasmopara viticola; assay: Test G: curative control of grape downy mildew on grape seedlings (sprayed after inoculation); conditions: sprayed day after inoculation
[6] = system: Puccinia recondita; assay: Test B: preventive control of wheat leaf rust on wheat seedlings; design: concentration or dose not given beside the values; conditions: sprayed day before inoculation, rate not given
[7] = tomato (or potato) seedlings, sprayed day before inoculation, rate not given
[8] = sprayed day before inoculation, rate not given

Structure (SMILES)	Test A disease control rating [1] [%]	Test D disease control rating [2, 7] [%]	Test E disease control rating [3, 8] [%]	Test F disease control rating [4] [%]	Test G disease control rating ([5]; rate not given) [%]	Test B disease control rating [6] [%]	pest or weed control at 100 g/ha [4] [%]	Test D disease control rating ([2]; 100 g/ha on potato seedlings)	Test E disease control rating ([3]; rate 100 g/ha (footnote *))	Test G disease control rating ([5]; rate 100 g/ha (footnote *))
Cc1cc(Cl)c(C(=O)NCc2ncc(Cl)cc2Br)c(Cl)n1 [Compound 40]	0	100	100	95	99	–	–	–	–	–
CC(NC(=O)c1c(Cl)ccnc1Cl)c1ncc(Br)cc1Br (centres unmarked) [Compound 7]	0	100	100	100	100	45	–	–	–	–
CC(NC(=O)c1c(Cl)ccnc1Cl)c1ncc(I)cc1Cl (centres unmarked) [Compound 3, N-[1-(3-chloro-5-iodo-2-pyridinyl)ethyl]-2,4-dichloro-3-pyridinecarboxamide]	0	100	95	–	100	19	88	–	–	–
Cc1cc(Cl)c(C(=O)NC(C)c2ncc(Br)cc2Cl)c(Cl)n1 (centres unmarked) [Compound 13]	0	100	100	100	100	68	–	–	–	–
CC(NC(=O)c1c(I)ccnc1Cl)c1ncc(Cl)cc1Cl (centres unmarked) [Compound 27]	0	100	100	0	100	–	–	–	–	–
O=C(NCc1ncc(Br)cc1Cl)c1c(Cl)ccnc1Cl [Compound 9, N-[(5-bromo-3-chloro-2-pyridinyl)methyl]-2,4-dichloro-3-pyridinecarboxamide]	0	100	88	–	99	9	99	–	–	–
CC(NC(=O)c1c(Br)ccnc1Cl)c1ncc(Br)cc1Cl (centres unmarked) [Compound 28]	0	99	100	100	100	–	–	–	–	–
CC(NC(=O)c1c(Br)ccnc1F)c1ncc(Br)cc1Cl (centres unmarked) [Compound 37]	0	100	100	100	100	–	–	–	–	–
CC(NC(=O)c1c(I)ccnc1F)c1ncc(Br)cc1Br (centres unmarked) [Compound 31]	0	100	100	79	100	–	–	–	–	–
CC(NC(=O)c1c(Cl)ccnc1Cl)c1ncc(OC(F)F)cc1Cl (centres unmarked) [Compound 11]	0	100	100	93	100	0	–	–	–	–
Cc1cc(Cl)c(C(=O)NCc2ncc(Cl)cc2Cl)c(Cl)n1 [Compound 19, 2,4-Dichloro-N-[(3,5-dichloro-2-pyridinyl)methyl]-6-methyl-3-pyridinecarboxamide]	0	99	100	–	100	–	0	–	–	–
Cc1cc(Cl)c(C(=O)NCc2ncc(I)cc2Cl)c(Cl)n1 [Compound 16, N-[(3-chloro-5-iodo-2-pyridinyl)methyl]-2,4-dichloro-6-methyl-3-pyridinecarboxamide]	0	100	100	–	95	32	83	–	–	–
O=C(NCc1ncc(I)cc1Br)c1c(Cl)ccnc1Cl [Compound 35]	0	–	–	96	–	–	–	100# %	99* %	50* %
Cc1cc(Cl)c(C(=O)NC(C)c2ncc(I)cc2Cl)c(Cl)n1 (centres unmarked) [Compound 15, N-[1-(3-chloro-5-iodo-2-pyridinyl)ethyl]-2,4-dichloro-6-methyl-3-pyridinecarboxamide]	0	100	100	–	100	0	70	–	–	–
